Data from publication PMC11855827, “High-Throughput Screening of Five Compound Libraries for Anthelmintic Activity and Toxicity Leads to the Discovery of Two Flavonoid Compounds” (International Journal of Molecular Sciences, 2025).
Where two headings read alike, the source gives them in different places. Marks after values point to notes of the source that are not given here.

Columns and labels:
C. elegans [1] = assay: C. elegans motility dose-response (DR) assay; set-up: species or system Caenorhabditis elegans
[2] = tested on: H. contortus susceptible strain; assay: Larval migration inhibition test (LMIT); set-up: species or system Haemonchus contortus; conditions: L3, 100 μM, NE = Not Effective at 100 μM, control ivermectin 8.75 µg/mL; for inhibition at 100 µM: Haemonchus contortus, 24 h
Description: (§1) Eggs and third instar larvae (L3) of H. contortus from a field strain and a resistant strain of T. circumcincta were used in the current trials. These parasitic forms were obtained from fresh feces of Merino and Churra sheep experimentally infected at the experimental farm of the Instituto de Ganadería de Montaña (IGM, CSIC, Gruyeros, León, Spain) and purified according to previously described methods. Briefly, eggs were taken from fresh feces, washed, centrifuged and floated with a saturated sodium chloride solution, then concentrated, counted and used in the assays. L3 were obtained by culturing feces at 25 °C for 13 d. L3 larvae were […] in 0.5% sodium hypochlorite solution for 10 min at room temperature and washed to avoid excess salt. After washing, they were concentrated and counted for use.
(§2) The viability of H. contortus larvae was assessed by the larval migration inhibition test (LMIT) according to previously described methods. Briefly, 700 µL aliquots containing 500–600 L3 were prepared for each compound. […] After a 24 h incubation at 28 °C, the compound was removed by three washes, leaving a final volume of 1400 µL. After the washes, three 400 µL aliquots were taken from each tube and transferred to a 96-well plate with a MultiScreen mesh filter. The plates were incubated for a further 24 h at 28 °C to allow the motile L3 to pass through the 20 µm mesh for counting. Then, the number of larvae present in each well was counted to determine percentage of larval migration for each compound: % Larval migration=number of larvae migrating in compound wells/number of larvae migrating in negative control×100
(§3) For the larvae, ivermectin at 8.75 µg/mL and DMSO 0.5% (v/v) were used as controls and at least 12 replicates were performed. […] EC50 were determined by plotting the percentage of viability of the L1 against the concentration of each compound, using the nonlinear fit analysis provided by the SigmaPlot® 10.1.

[3] = tested on: T. circumcincta resistant strain; assay: Larval migration inhibition test (LMIT); set-up: species or system Teladorsagia circumcincta; conditions: resistant strain, L3, 100 μM, NE = Not Effective at 100 μM, control ivermectin 8.75 µg/mL
Description: as §1, §2, §3

C. elegans [4] = tested on: C. elegans
C. elegans [5] = conditions: cited from earlier work
[6] = tested on: T. circumcincta resistant strain; assay: Egg hatch inhibition (EHI), ovicidal effect; set-up: species or system Teladorsagia circumcincta
[7] = tested on: H. contortus susceptible strain; assay: Egg hatch inhibition (EHI), ovicidal effect; set-up: species or system Haemonchus contortus
C. elegans [8] = assay: microbe, parasite or virus in culture; conditions: Caenorhabditis elegans
[9] = Spheroids toxicity assay (alamarBlue); format: cell-based; conditions: human
Experimental: HepG2 cells were cultured as a monolayer under standard conditions, using DMEM/F12 medium supplemented with L-glutamine and 15 mM HEPES buffer (pH 7.2) supplemented with 10% fetal bovine serum (FBS) and antibiotic mixture (100 U/mL penicillin and 100 µg/mL streptomycin) at 37 °C and 5% CO2, according to previous published protocols.
Cells were detached from the culture flask using 0.25% trypsin solution and then centrifuged at 500× g for 6.5 min. After centrifugation, the supernatant was discarded, and the pellet was resuspended in culture medium. Cells were passed gently through a G27 needle several times and then counted. Cells were dispensed into a tissue treated Nunclon™ Sphera™ 96-well U-bottom plate (Thermo Scientific™, Waltham, MA, USA, 174925) in a final volume of 50 µL to a total of 2500 cells/well. In addition, another 50 µL of medium supplemented with Rat Tail Collagen I (Gibco™, Thermo Scientific™, Waltham, MA, USA, A1048301) was dispensed, to achieve a final concentration in a plate of 3 µg/mL for each well. The plate was centrifuged at 500× g for 1 min.
On Day 4, 100 µL of a serial dilution of the testing compounds were added to each well. For controls, 0.03% H2O2 (v/v) as positive control and 0.2% DMSO (v/v) as negative control were used.
To determine the viability of the spheroids to the testing compounds, a 20% of alamarBlue™ HS reagent (Invitrogen™, Thermo Fisher Scientific™, Waltham, MA, USA) was added on Day 7 and the results were read 24 h later using a Varioskan™ LUX (Thermo Scientific, USA, Instrument software ver. 1.00.37, Skanlt software ver. 5.0.0.42). All assays were conducted in duplicate across at least three independent experiments.

in vitro = conditions: C57BL/6, mouse
[10] = Mouse intestinal organoids' tolerance assay (alamarBlue); conditions: C57BL/6, mouse
[11] = read-out: EC50 (μM) at 24 h, C. elegans motility, DR assay
[12] = Caenorhabditis elegans, 24 h, read-out: EC50 (μM) at 24 h, C. elegans motility, DR assay, 24 h
[13] = resistant strain, 100 μM, NE = Not Effective at 100 μM, control thiabendazole 0.1 µg/mL
[14] = Haemonchus contortus, susceptible strain, 100 μM, NE = Not Effective at 100 μM, control thiabendazole 0.1 µg/mL
[15] = 0 h, read-out: Inhibition (%) 110 μM (0 h), C. elegans L4 motility, 110 μM, 0 h, mean ± SD of four experiments
[16] = 24 h, read-out: Inhibition (%) 110 μM (24 h), C. elegans L4 motility, 110 μM, 24 h, mean ± SD of four experiments

Ivermectin [reference compound]
EC50 (C. elegans [1]; [11]): 2.18 µM
H. contortus LMIT (%) [2]: 100.0 ± 0.0%
T. circumcincta LMIT (%) [3]: 100.0 ± 0.0%
Inhibition (%) 110 μM (0 h) (C. elegans [4]): 98 ± 1%
Inhibition (%) 110 μM (24 h) (C. elegans [4]): 85 ± 14%
EC50 (C. elegans [5]; read-out: EC50 found in the literature): 0.19 µM

CCOc1ccc2nc3cc(N)ccc3c(N)c2c1 [Ethacridine lactate, reference compound]
EC50 (C. elegans [1]; [12]): 50.1 ± 1 µM
H. contortus LMIT (%) [2]: 4.9 ± 2.2%
T. circumcincta EHI (%) [6, 13]: 4.0 ± 1.5%
inhibition at 100 µM [7, 14]: 55.8 ± 5.1%
inhibition at 110 µM (C. elegans [8]; [15]): 66 ± 26%
inhibition at 110 µM (C. elegans [8]; [16]): 87 ± 6%

CC1(C)[C@H](OC(=O)c2ccccc2)CC[C@]2(C)C3=C([C@@H](O)C[C@@H]12)[C@@]1(C)CC[C@@]2(C)CC[C@@](C)(COC(=O)c4ccccc4)C[C@H]2[C@]1(C)CC3 [3,29-dibenzoyl rarounitriol]
EC50 (C. elegans [1]; [11]): 45.4 ± 5.1 µM
H. contortus LMIT (%) [2]: 0.0%
T. circumcincta EHI (%) [6, 13]: 0.0%
T. circumcincta LMIT (%) [3]: 0.0 * %
Inhibition (%) 110 μM (0 h) (C. elegans [4]; C. elegans L4 motility, 110 μM, 0 h, mean ± SD of four experiments): 40 ± 22%
Inhibition (%) 110 μM (24 h) (C. elegans [4]; C. elegans L4 motility, 110 μM, 24 h, mean ± SD of four experiments): 71 ± 19%
H. contortus EHI (%) ([7]; susceptible strain, 100 μM, NE = Not Effective at 100 μM, control thiabendazole 0.1 µg/mL): 0.0%

CC1(C)CCC[C@]2(C)[C@@H](C=O)C(C=O)=CC[C@@H]12 [Polygodial]
EC50 (C. elegans [1]; [12]): 33.2 ± 6.4 µM
inhibition at 100 µM [2]: 0%
inhibition at 100 µM [7, 14]: 0%
inhibition at 110 µM (C. elegans [8]; [15]): 0%
inhibition at 110 µM (C. elegans [8]; [16]): 93 ± 4%

Oc1ccc(/C=C/c2cc(O)cc(O)c2)cc1 [Resveratrol]
EC50 (C. elegans [1]; [12]): 27.7 ± 1.5 µM
inhibition at 100 µM [2]: 0%
inhibition at 100 µM [7, 14]: 0%
inhibition at 110 µM (C. elegans [8]; [15]): 82 ± 8%
inhibition at 110 µM (C. elegans [8]; [16]): 7 ± 7%

O=C(/C=C/c1ccccc1)c1ccccc1 [Chalcone]
CC50 at 3 d ([9]; HepG2 liver spheroids (3D culture), read-out: Citotoxicity CC50 (μM) Sph): > 90 µM
selectivity ratio ([9]; pH 7.2, Selective Index (SI) CC50/EC50 Sph/H. c): > 24.3
selectivity ratio ([9]; pH 7.2, Selective Index (SI) CC50/EC50 Sph/T. c): > 9.2
EC50 (C. elegans [1]; [11]): 52.4 ± 1.4 µM
selectivity ratio (in vitro; Selective Index (SI) CC50/EC50 Ent/H. c): > 13.5
selectivity ratio (in vitro; Selective Index (SI) CC50/EC50 Ent/T. c): > 5.1
H. contortus LMIT (%) [2]: 45.7 ± 4.5%
EC50 ([6]; Teladorsagia circumcincta, egg hatching, resistant T. circumcincta, nine replicates, read-out: Ovicidal Effect EC50 (μM) T. c): 9.8 ± 0.3 µM
inhibition at 100 µM ([6]; Teladorsagia circumcincta, resistant strain, 100 μM, NE = Not Effective at 100 μM, control thiabendazole 0.1 µg/mL): 100%
inhibition at 100 µM ([3]; Teladorsagia circumcincta, 24 h, read-out: T. circumcincta LMIT (%)): 4.7 ± 1.5%
Percentage of motility inhibition 24 h (C. elegans [4]; 24 h, 110 µM): 86%
CC50 at 3 d [10]: > 50 µM
EC50 ([7]; Haemonchus contortus, egg hatching, susceptible H. contortus, nine replicates, read-out: Ovicidal Effect EC50 (μM) H. c): 3.7 ± 0.1 µM
inhibition at 100 µM [7, 14]: 99.4 ± 0.1%
inhibition at 110 µM (C. elegans [8]; [15]): 30 ± 30%
inhibition at 110 µM (C. elegans [8]; [16]): 85 ± 15%
EC50 (C. elegans [5]; nematocidal, read-out: EC50 against C. elegans): 52 ± 9 µM

N=C(N/N=C/c1ccc(Cl)cc1)N/N=C/c1ccc(Cl)cc1 [Robenidine, reference compound]
EC50 (C. elegans [1]; [12]): 32.3 ± 2.8 µM
inhibition at 100 µM [2]: 3.1 ± 6.9%
inhibition at 100 µM [7, 14]: 59.7 ± 0.7%
inhibition at 110 µM (C. elegans [8]; [15]): 93 ± 5%
inhibition at 110 µM (C. elegans [8]; [16]): 81 ± 20%
inhibition at 110 µM (C. elegans [8]; 24 h, read-out: Percentage of motility inhibition 24 h, Table S2, C. elegans SS assay, 110 μM, 24 h, averages of 4 data points): 80%
